Laboratory results reported in patent US20250221952A1, “METHODS AND COMPOSITIONS FOR LARGE MODIFICATIONS OF ATP OUTPUT BY INNER MITOCHONDRIAL MEMBRANE LATCHING” (priority 2025, published 2025).
Values joined by “and” are separate entries in the source; they are usually repeats but may differ in a detail not shown here. Identical values can stand only once. “Also recorded” adds a separate entry of the source. Like-named read-outs stand apart in the source and are kept apart here.

Experiments:
mitochondrial ATP output = assay: Bicep curls to failure (reps-to-failure) as proxy for ATP output; type: in vivo, human; parameters: key to Latching: ↑: Up-latching is indicated by an up-arrow; ↓: down-latching by a down-arrow; —: others producing no significant effect are indicated by a dash; conditions: for Latching: Table 1, up-/down-latching of IMM judged by reps-to-failure; for change in reps-to-failure from baseline: 100 mg dose, baseline 11 reps
[1] = in vivo; cited from earlier work

Row | Structure (SMILES) | Latching (mitochondrial ATP output) | latching behaviour as described in words (mitochondrial ATP output) | further results
1 | O=C(O)CCC(=O)C(=O)O [AKG, Alpha-ketoglutarate] |  |  | latching behaviour as described in words (mitochondrial ATP output; in vivo): weak up-latcher
2 | O=C(O)CCCCC(=O)O [Adipic acid] | ↑ |  | reps-to-failure after dose (mitochondrial ATP output; 1 gram with 1 gram AAKG and sodium bicarbonate, from 11 reps, in 20 minutes): 31 reps
3 | O=C(O)CCCCCCCC(=O)O [Azelaic acid] | ↑ |  | reps-to-failure after dose (mitochondrial ATP output; one gram, used alone, from 13, in 30 minutes): 43 reps
4 | c12c3c4c5c1c1c6c7c2c2c8c3c3c9c4c4c%10c5c5c1c1c6c6c%11c7c2c2c7c8c3c3c8c9c4c4c9c%10c5c5c1c1c6c6c%11c2c2c7c3c3c8c4c4c9c5c1c1c6c2c3c41 [C60, fullerene C60] |  |  | subsequent reps-to-failure performance (mitochondrial ATP output; FIG. 6 curve 624, 3 mg C60 in MCT oil taken at 49 reps after up-latchers and DHM): almost flat
5 | O=C(O)CC(O)(CC(=O)O)C(=O)O [Citric acid] | ↓ | strongest down-latchers; also recorded: strong down-latcher | reps-to-failure after dose (mitochondrial ATP output; 50 mg taken alone, from 20): 11 reps; reps-to-failure after dose (mitochondrial ATP output; FIG. 11 point 1108, two grams neutralized, from baseline 22 reps, stays flat): 10 reps; bicep curls to failure after dose (mitochondrial ATP output; about 2 g neutralized by bicarbonate, from 24 rep baseline, at 15 and 30 minutes): 11 reps; half-life in the body [1]: about 5 minutes
6 | COC1=C(OC)C(=O)C(C/C=C(\C)CC/C=C(\C)CC/C=C(\C)CC/C=C(\C)CC/C=C(\C)CC/C=C(\C)CC/C=C(\C)CC/C=C(\C)CC/C=C(\C)CCC=C(C)C)=C(C)C1=O [CoQ-10] | — |  | 
7 | CN(CC(=O)O)C(=N)N [Creatine] | — | did not latch | 
8 | O=C1c2c(O)cc(O)cc2O[C@H](c2cc(O)c(O)c(O)c2)[C@H]1O [DHM, Dihydromyricetin] |  | down-latching | reps-to-failure after dosing on top of up-latching (mitochondrial ATP output; FIG. 9 curve 924, dosed at point 922 after lactate/AAKG/PQQ, baseline 20 reps, then recovery): substantially below baseline
9 | OC[C@@H](O)[C@@H](O)CO [Erythritol] | ↓ | strong down-latchers | reps-to-failure after dose (mitochondrial ATP output; FIG. 6 point 630, dosed at up-latched level of about 49 reps): 11 reps
10 | O=C(O)/C=C/C(=O)O [Fumaric acid] | ↑ | one of the best up-latchers | reps-to-failure curve compared with curve 124 of the fumaric acid/AAKG combination (mitochondrial ATP output; FIG. 1, dosed singly, neutralized, baseline 12 reps): much lower
11 | OCC(O)CO [Glycerol] | ↓ | strong down-latcher | reps-to-failure after being reduced (mitochondrial ATP output; 3 g, separate trials): 11 reps and 14 reps; reps-to-failure after being knocked down (mitochondrial ATP output; 5 g): 14 reps; reps-to-failure after dose relative to baseline (mitochondrial ATP output; FIG. 3A point 373, 5 g, from up-latched level): down to baseline; reps-to-failure after dose (stabilized) (mitochondrial ATP output; FIG. 4, five grams, from 30 reps): about 13 reps
12 | O=C(O)CO [Glycolic acid] | ↑ |  | reps-to-failure after dose (mitochondrial ATP output; .7 g, from 14 reps (after 5 g glycerol), in about 1 hour): 28 reps
13 | CC(O)C(=O)O (centres unmarked) [Lactic acid] | ↑ |  | reps-to-failure relative to new baseline 350 (mitochondrial ATP output; FIG. 3A points 360-362, after PQQ treatments): above baseline 350; biological half-life [1]: around 20 minutes
14 | CC(C)=CCC/C(C)=C/C=C/C(C)=C/C=C/C(C)=C/C=C/C=C(C)/C=C/C=C(C)/C=C/C=C(\C)CCC=C(C)C [Lycopene] | ↑ |  | bicep curls to failure after dose (mitochondrial ATP output; FIG. 7, 100 mg, from baseline of 6 reps, 70 minutes): 32 reps
15 | O=C(O)CC(O)C(=O)O (centres unmarked) [Malic acid] | ↑ |  | reps-to-failure after dose (mitochondrial ATP output; as magnesium malate, from 10 reps (after 3 g glycerol and 1 g ethyl lactate), in 2 hours): 21 reps; reps-to-failure results compared with neutralized fumaric acid in FIG. 1 (mitochondrial ATP output; separate trials, neutralized): nearly identical
16 | O=C(O)C(O)c1ccccc1 (centres unmarked) [Mandelic acid] | ↑ |  | reps-to-failure after dose (mitochondrial ATP output; 1 g of salt, from 14 reps (after 3 g glycerol)): 31 reps
17 | OC[C@@H](O)[C@@H](O)[C@H](O)[C@H](O)CO [Mannitol] | — |  | 

Row | Structure (SMILES) | Latching (mitochondrial ATP output) | latching behaviour as described in words (mitochondrial ATP output) | further results
18 | O=C(O)c1cccnc1 [Niacin] |  | down-latchers | 
19 | O=C(O)CC(=O)C(=O)O [Oxaloacetic acid] | ↑ |  | 
20 | O=C(O)c1cc(C(=O)O)c2c(n1)C(=O)C(=O)c1cc(C(=O)O)[nH]c1-2 [PQQ, Pyrroloquinoline quinone] |  |  | effect on fission and fusion reps-to-failure curves (mitochondrial ATP output; FIG. 3A point 340, PQQ increased 5-fold to 100 mg, with one gram AAKG, person after shingles): near instant merger of fission and fusion lines
21 | O=C(O)CCCCCC(=O)O [Pimelic acid] | ↑ |  | 
22 | CC(=O)C(=O)O [Pyruvate] | — |  | 
23 | Oc1ccc(C=Cc2cc(O)cc(O)c2)cc1 [Resveratrol] | ↓ |  | 
24 | O=C1NS(=O)(=O)c2ccccc21 [Saccharin] | .— |  | 
25 | OC[C@@H](O)[C@@H](O)[C@H](O)[C@@H](O)CO [Sorbitol] | ↓ |  | 
26 | O=C(O)CCCCCCC(=O)O [Suberic acid] | ↑ |  | 
27 | O=C(O)CCC(=O)O [Succinic acid] | ↑ | indirect up-latcher | peak reps-to-failure relative to fumaric and/or malic acids (mitochondrial ATP output; combined with AAKG and a neutralizing base): about half; delay of reps-to-failure peak (mitochondrial ATP output; combined with AAKG and a neutralizing base, versus fumaric/malic acids): about 15 minutes
28 | O=C(O)C(O)C(O)C(=O)O (centres unmarked) [Tartaric acid] | ↑ |  | reps-to-failure after dose (mitochondrial ATP output; 2 g, from 11 reps (after 3 g glycerol)): 21 reps
29 | O=c1oc2cc(O)ccc2c2ccc(O)cc12 [Urolithin A] | ↓ |  | 
30 | CCCCOC(=O)C(C)O (centres unmarked) [butyl lactate] |  | strong down-latchers | 
31 | CCOC(=O)C(C)O (centres unmarked) [ethyl lactate] |  | strong down-latchers | 
32 | CN(C)c1ccc2nc3ccc(=[N+](C)C)cc-3sc2c1 [methylene blue, reference compound] |  |  | change in reps-to-failure from baseline (mitochondrial ATP output; at 15 minutes): no change; change in reps-to-failure from baseline (mitochondrial ATP output; at one hour): no change
33 | NC(=O)c1cccnc1 [nicotinamide] |  | down-latchers | 
34 | CC1=C(/C=C/C(C)=C/C=C/C(C)=C/C=C/C=C(C)/C=C/C=C(C)/C=C/C2=C(C)C[C@@H](O)CC2(C)C)C(C)(C)C[C@H](O)C1 [zeaxanthin] |  | substantially non-latcher | maximum bicep curls to failure after dose (mitochondrial ATP output; FIG. 7 point 706, from baseline of 9 reps, in 15 minutes, then fell back): 14 reps
